# What was measured:
# [1] = target: Phosphatidylinositol 4-phosphate 3-kinase C2 domain-containing subunit beta (Homo sapiens) (UniProt O00750); settings: at 10 µM
# [2] = target: Serine/threonine-protein kinase N1 (Homo sapiens, UniProt Q16512); test: Selectivity interaction (Kinase panel (Z-LYTE Assay)) EUB0001632a PKN1; settings: at 10 µM
# [3] = target: Myosin light chain kinase 2, skeletal/cardiac muscle (Homo sapiens) (UniProt Q9H1R3); test: Selectivity interaction (Kinase panel (Z-LYTE Assay)) EUB0001632a MYLK2; settings: at 10 µM
# Myosin light chain kinase 2, skeletal/cardiac muscle (Homo sapiens), sequence (Q9H1R3 whole entry): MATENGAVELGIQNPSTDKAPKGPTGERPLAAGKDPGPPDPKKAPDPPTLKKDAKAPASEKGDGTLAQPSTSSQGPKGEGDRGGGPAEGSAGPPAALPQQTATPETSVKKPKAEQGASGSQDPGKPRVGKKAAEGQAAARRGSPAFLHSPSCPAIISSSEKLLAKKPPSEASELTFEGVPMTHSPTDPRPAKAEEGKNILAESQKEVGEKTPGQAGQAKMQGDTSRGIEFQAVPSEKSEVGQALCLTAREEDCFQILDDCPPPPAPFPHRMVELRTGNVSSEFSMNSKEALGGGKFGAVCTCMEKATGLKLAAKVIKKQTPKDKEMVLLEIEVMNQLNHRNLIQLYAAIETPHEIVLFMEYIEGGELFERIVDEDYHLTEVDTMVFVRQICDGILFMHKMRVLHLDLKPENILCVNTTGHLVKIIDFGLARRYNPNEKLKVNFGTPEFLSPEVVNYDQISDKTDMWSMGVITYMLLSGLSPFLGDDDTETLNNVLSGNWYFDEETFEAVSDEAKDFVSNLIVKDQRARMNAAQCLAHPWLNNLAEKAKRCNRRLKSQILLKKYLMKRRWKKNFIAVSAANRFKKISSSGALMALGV
# [4] = test system: Tyrosine-protein kinase receptor UFO (Homo sapiens), P30530 [R499C]; test: Selectivity interaction (LanthaScreen Eu Kinase Binding Assay) EUB0001632a AXL; settings: at 10 µM
# Tyrosine-protein kinase receptor UFO (Homo sapiens), P30530 [R499C], sequence (P30530 whole entry R499C): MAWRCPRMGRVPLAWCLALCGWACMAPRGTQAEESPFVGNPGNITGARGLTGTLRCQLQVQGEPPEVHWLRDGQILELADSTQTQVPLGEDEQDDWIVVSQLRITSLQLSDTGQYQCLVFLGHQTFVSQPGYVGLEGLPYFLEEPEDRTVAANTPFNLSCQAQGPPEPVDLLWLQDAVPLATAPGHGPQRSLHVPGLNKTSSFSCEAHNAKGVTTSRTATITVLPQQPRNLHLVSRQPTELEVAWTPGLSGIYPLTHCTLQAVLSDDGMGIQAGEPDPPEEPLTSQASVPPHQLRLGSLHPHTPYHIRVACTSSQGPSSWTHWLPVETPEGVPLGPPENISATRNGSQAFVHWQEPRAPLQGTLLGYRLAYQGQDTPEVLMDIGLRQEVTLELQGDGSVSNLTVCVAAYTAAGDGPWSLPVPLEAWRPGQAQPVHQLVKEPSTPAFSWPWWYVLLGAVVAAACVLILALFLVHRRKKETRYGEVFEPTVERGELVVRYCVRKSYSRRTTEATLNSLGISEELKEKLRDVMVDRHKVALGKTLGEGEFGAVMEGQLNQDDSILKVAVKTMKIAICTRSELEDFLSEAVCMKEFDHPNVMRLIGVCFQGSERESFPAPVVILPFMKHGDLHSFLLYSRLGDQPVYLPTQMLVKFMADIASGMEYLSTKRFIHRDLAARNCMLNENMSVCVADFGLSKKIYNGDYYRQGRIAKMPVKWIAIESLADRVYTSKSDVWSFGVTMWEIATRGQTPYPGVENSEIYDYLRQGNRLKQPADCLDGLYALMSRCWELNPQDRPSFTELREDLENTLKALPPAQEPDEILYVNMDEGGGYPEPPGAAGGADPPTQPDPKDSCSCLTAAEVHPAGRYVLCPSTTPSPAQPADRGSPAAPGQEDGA
# [5] = target: T1, cGMP-dependent protein kinase 2 (Homo sapiens) (UniProt Q13237); test: Selectivity interaction (KinomeScan (DiscoverX)) EUB0000695a PRKG2; settings: at 100 nM
# T1 sequence (whole entry): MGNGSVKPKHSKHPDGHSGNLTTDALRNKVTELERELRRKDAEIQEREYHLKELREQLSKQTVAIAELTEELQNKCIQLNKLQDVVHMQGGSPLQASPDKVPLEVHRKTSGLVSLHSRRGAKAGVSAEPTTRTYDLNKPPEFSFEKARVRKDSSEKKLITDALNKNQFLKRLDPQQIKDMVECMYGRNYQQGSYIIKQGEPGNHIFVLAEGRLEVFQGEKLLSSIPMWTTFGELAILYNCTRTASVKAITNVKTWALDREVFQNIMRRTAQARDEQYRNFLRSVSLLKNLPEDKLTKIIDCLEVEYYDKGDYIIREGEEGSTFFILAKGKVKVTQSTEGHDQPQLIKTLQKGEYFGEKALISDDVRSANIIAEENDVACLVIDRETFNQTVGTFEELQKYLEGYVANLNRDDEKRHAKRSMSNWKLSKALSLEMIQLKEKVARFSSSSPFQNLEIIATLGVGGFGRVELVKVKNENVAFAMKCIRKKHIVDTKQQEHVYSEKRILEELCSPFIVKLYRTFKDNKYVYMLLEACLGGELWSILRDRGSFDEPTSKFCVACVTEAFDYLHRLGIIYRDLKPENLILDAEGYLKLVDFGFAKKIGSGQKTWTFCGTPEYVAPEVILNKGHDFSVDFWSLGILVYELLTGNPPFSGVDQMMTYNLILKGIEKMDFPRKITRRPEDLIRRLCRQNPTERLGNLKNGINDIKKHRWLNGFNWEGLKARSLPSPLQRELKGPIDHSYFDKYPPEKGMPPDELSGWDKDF
# [6] = target: Cyclin-dependent kinase 8 (Homo sapiens, UniProt P49336); test: Selectivity interaction (KinomeScan (DiscoverX)) EUB0000229b CDK8; settings: at 10 µM
# Cyclin-dependent kinase 8, sequence (P49336 whole entry): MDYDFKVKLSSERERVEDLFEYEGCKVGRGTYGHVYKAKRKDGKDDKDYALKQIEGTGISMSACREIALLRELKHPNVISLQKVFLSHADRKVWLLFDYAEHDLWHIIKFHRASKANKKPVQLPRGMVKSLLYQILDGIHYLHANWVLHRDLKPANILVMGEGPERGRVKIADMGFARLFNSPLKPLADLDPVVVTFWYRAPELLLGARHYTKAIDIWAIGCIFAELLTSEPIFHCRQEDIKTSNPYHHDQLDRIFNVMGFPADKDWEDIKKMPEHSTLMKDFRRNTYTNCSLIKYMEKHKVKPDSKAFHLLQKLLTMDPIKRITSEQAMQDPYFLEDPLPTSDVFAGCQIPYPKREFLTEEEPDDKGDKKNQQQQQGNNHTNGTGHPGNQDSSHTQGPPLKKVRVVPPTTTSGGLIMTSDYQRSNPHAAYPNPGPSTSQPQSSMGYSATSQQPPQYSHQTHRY
# [7] = target: Death-associated protein kinase 3 (Homo sapiens) (UniProt O43293); test: Selectivity interaction (Kinase panel (DSF assay)) EUB0001559a DAPK3
# Death-associated protein kinase 3 (Homo sapiens), sequence (O43293 whole entry, looked up): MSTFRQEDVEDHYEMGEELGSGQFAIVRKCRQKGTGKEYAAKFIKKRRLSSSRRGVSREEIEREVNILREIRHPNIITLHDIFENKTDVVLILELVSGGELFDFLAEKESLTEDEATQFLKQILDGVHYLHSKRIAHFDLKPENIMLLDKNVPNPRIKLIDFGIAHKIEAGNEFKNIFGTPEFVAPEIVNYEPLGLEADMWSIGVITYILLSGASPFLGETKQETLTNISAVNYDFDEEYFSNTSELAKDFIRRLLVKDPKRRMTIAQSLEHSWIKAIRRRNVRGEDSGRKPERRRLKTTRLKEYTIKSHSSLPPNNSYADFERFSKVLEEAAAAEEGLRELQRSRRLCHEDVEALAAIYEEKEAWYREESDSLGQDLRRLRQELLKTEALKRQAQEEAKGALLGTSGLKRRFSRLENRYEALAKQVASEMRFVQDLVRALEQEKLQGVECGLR
# [8] = target: T2, Histone-lysine N-methyltransferase SMYD3 (Homo sapiens) (UniProt Q9H7B4); test: Selectivity interaction (Methyltransferase screen (Scintillation proximity assays)) EUB0000255b SMYD3
# T2 sequence (whole entry): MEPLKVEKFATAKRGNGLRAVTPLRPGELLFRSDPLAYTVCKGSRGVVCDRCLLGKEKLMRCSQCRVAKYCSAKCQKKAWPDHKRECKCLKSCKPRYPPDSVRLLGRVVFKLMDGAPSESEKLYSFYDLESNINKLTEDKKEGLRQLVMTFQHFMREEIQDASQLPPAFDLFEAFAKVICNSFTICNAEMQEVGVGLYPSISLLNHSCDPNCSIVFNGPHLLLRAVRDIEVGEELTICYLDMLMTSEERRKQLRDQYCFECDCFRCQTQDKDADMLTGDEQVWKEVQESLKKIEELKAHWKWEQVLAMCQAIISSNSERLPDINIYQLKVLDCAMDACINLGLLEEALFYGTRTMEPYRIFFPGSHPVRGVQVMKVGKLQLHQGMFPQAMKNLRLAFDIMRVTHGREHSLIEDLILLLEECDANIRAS
# [9] = target: T3, Homeodomain-interacting protein kinase 4 (Homo sapiens) (UniProt Q8NE63); test: Selectivity interaction (KinomeScan (DiscoverX)) EUB0000666a HIPK4; settings: at 10 µM
# T3 sequence (whole entry): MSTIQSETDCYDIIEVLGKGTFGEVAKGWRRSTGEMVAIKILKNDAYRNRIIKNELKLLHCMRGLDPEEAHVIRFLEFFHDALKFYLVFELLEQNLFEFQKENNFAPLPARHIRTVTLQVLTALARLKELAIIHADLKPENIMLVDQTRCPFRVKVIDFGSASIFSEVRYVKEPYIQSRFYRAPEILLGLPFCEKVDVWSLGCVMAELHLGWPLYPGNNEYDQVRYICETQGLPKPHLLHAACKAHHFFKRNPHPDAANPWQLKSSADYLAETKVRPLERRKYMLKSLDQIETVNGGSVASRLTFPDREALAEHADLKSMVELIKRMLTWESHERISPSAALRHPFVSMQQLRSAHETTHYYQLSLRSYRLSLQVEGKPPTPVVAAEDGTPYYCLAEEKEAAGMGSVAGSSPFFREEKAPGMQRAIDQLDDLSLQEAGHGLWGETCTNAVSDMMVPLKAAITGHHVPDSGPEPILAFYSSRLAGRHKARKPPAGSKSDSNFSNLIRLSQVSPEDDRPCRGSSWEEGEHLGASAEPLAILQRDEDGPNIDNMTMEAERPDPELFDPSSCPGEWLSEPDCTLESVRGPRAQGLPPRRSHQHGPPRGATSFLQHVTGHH
# Phosphatidylinositol 4-phosphate 3-kinase C2 domain-containing subunit beta (Homo sapiens), sequence (O00750 whole entry, the tested form may be a part): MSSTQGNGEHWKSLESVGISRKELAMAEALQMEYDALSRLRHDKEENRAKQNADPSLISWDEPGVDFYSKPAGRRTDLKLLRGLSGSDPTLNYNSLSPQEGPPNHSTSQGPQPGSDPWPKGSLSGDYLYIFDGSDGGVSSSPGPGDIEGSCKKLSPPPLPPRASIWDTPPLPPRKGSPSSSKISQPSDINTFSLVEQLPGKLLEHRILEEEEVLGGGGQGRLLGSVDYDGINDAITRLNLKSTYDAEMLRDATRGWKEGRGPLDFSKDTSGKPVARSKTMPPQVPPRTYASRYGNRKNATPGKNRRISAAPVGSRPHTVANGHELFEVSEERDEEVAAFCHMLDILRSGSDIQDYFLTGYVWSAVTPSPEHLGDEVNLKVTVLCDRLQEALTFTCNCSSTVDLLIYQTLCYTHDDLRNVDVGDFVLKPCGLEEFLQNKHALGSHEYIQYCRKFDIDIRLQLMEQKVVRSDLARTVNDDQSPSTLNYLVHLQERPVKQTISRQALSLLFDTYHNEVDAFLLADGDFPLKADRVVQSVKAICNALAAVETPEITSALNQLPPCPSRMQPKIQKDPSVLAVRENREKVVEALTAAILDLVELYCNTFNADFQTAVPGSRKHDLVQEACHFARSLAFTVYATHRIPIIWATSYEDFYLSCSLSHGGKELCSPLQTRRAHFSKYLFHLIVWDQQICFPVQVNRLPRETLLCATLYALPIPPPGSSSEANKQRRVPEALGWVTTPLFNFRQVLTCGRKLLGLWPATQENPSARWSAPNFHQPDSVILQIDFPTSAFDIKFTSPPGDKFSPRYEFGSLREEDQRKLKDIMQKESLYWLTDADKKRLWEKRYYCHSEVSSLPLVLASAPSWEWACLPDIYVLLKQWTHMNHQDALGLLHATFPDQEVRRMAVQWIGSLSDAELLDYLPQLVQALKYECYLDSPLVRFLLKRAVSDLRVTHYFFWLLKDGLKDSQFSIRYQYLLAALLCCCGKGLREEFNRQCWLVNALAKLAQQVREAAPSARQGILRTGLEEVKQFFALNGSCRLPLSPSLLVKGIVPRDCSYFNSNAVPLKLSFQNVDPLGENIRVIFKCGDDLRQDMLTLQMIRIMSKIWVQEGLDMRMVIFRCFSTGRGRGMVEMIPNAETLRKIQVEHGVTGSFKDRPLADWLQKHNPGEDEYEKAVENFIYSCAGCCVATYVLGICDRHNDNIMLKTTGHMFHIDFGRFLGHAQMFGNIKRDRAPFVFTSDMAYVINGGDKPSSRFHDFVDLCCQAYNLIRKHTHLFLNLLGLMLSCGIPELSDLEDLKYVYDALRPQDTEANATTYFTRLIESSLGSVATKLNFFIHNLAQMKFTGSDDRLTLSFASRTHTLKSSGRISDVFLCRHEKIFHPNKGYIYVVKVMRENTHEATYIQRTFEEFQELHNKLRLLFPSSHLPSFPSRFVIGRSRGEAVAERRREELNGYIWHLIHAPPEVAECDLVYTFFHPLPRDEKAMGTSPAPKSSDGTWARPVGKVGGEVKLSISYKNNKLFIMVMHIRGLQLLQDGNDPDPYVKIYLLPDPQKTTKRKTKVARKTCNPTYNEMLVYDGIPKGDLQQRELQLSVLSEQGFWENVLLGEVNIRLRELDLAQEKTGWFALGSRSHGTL
# Serine/threonine-protein kinase N1, sequence (Q16512 2-942 limits assumed): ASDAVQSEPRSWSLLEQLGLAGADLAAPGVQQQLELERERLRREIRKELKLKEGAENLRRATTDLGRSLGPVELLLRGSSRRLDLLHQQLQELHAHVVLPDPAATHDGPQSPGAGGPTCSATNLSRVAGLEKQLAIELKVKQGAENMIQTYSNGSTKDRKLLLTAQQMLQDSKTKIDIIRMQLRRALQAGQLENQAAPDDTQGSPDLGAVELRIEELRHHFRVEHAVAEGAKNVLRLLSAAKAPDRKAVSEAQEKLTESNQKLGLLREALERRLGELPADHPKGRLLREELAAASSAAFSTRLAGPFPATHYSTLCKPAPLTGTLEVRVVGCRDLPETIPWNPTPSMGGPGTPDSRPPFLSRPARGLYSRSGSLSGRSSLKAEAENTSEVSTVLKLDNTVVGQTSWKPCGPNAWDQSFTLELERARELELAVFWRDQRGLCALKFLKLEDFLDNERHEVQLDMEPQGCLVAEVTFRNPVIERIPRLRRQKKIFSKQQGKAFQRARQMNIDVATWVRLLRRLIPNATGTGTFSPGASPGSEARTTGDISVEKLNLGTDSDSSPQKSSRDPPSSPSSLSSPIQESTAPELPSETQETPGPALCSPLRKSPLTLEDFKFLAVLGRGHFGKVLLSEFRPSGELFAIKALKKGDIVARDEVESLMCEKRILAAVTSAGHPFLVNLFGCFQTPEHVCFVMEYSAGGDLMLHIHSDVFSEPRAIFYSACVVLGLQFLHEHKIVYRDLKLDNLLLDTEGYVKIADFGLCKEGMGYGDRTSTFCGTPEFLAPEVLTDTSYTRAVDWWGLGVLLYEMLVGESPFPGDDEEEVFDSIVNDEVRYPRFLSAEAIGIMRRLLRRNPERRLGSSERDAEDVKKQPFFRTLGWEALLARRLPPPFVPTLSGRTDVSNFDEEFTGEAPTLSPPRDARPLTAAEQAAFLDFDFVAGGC
smiles,measurement,setting,value
Cc1cc([C@@H](C)Nc2ccccc2C(=O)O)c2nc(N3CCOCC3)cc(=O)n2c1 [AZD-6482],% of control,[1],0.4%
Cn1cc(-n2cnc3c(NCc4nc5cc(Cl)c(Cl)cc5[nH]4)nc(N4CCOCC4)nc32)cn1,% of control,[2],-4.72%
same,% of control,[3],3.79%
same,% of inhibition,[4],-15.8%
Cc1cc(F)c(C(=O)Nc2cccc(-c3nncn3C(C)C)n2)cc1-n1cnc(C2CC2)c1,% of control,[5],88%
COc1cc(N(C)c2ccnc3ccc(C(F)(F)F)cc23)cc(OC)c1OC,% binding,[6],100%
CN(C(=O)c1cnn2cccnc12)c1cc2c(cc1N1CCOCC1)C(=O)N(C[C@@H](F)C(C)(C)O)C2,dTM,[7],0.2 K
COCCN1CCC(c2cc(CN(C)C(=O)c3cccc(Oc4ccccc4)c3)ccn2)CC1,% activity,[8]; at 1 µM,> 95%
same,% activity,[8]; at 10 µM,83%
O=C(NOC[C@H](O)CO)c1ccc(F)c(F)c1Nc1ccc(I)cc1F,% of control,[9],100%
